# Results taken from US7078395B1, “Methods for treating or preventing cancer by preventing, inhibiting or arresting cell cycling” (priority 1999, dated 2006).
# Assays:
# Meth A sarcoma = settings: 100 mg/kg, p.o., every other day, 12 day, CH3 mice (10); cited from earlier work
# B16 melanoma = settings: 100 mg/kg, p.o., every other day, 12 day, CH3 mice (10); cited from earlier work
# [1] = test system: MCF-7 breast cancer cells; settings: reported by Seegers et al. (8); cited from earlier work
# [2] = test system: MDA-MB-435 breast cancer cells; settings: oral, 75 mg/kg/day for 29 days, SCID mice (11); cited from earlier work
# [3] = test system: MCF-7 breast cancer cells; assay: Cell morphology by photomicrographs; assay type: cell-based; settings: 10 μM
# Protocol: MCF-7 (ER+) and MDA-MB-231 (ER−) breast cancer cells were obtained from the American Type Culture Collection (Rockville, Md.). Cells were routinely cultured in 25 cm^2 culture flasks in Eagle's minimum essential medium (EMEM) with Hepes buffer (20 mM). This medium was supplemented with L-glutamine (2 mM), sodium hydrogen carbonate (10 mM), 1% non-essential amino acids and 5% (v/v) foetal calf serum (FCS). Before adding test compounds, cells were washed with phosphate-buffered saline (PBS) and treatments added in phenol-red free medium containing 2% stripped FCS and supplements. The effects of 2-MeOE1 or 2-MeOEMATE on the growth of MCF-7 cells was assessed using a Cell Titer 96 cell proliferation assay (Promega, Southampton, Hants, UK) according to the manufacturers' instructions. For this, cells (5000 per well) were cultured in medium containing phenol-red and 10% FCS and were exposed to a drug for 4 days before the assay was performed. For MDA-MB-231 cells, cell numbers were determined using a Coulter counter.
# Photomicrographs of control and treated cells were taken under normal conditions of light and exposure using an Olympus SL35 Type 12 camera under an Olympus CK2 microscope (×100 magnification).
# [4] = test system: MCF-7 breast cancer cells; assay: Irreversible inhibition of cell growth, Stage 1 and Stage 2 (Coulter cell counter); assay type: cell-based
# Protocol: MCF-7 breast cancer cells were seeded into multi-well culture plates at a density of 10^5 cells/well. Cells were allowed to attach and grown until about 30% confluent when they were treated as follows:
# Cells were grown for 6 days in growth medium containing the above drugs with changes of medium/drug every 3 days. At the end of this period cell numbers were counted using a Coulter cell counter.
# After treatment of cells for a 6-day period with the above drugs cells were re-seeded at a density of 10^4 Cells/well. No further treatments were added. Cells were allowed to continue to grow for a further 6 days in the presence of growth medium. At the end of this period cell numbers were again counted.
# Stages 1 and 2 described above were repeated using Control—no treatment, EMATE 20 μM and EMATE 5 μM.
# MCF-7 breast cancer cells were seeded into multi-well culture plates at a density of 10^5 cells/well. Cells were allowed to attach and grown until about 30% confluent when they were treated as follows: • Control—no treatment • Compound of Interest (COI) 20 μM
# Cells were grown for 6 days in growth medium containing the COI with changes of medium/COI every 3 days. At the end of this period cell numbers were counted using a Coulter cell counter.
# After treatment of cells for a 6-day period with the COI cells were re-seeded at a density of 10^4 cells/well. No further treatments were added. Cells were allowed to continue to grow for a further 6 days in the presence of growth medium. At the end of this period cell numbers were again counted.
# [5] = rats, oral (16); cited from earlier work
Structure (SMILES),reduction of tumour growth (Meth A sarcoma),reduction of tumour growth (B16 melanoma),concentrations cytotoxic to MCF-7 breast cancer cells [1],reduction of tumour volumes compared with untreated controls [2],toxic side effects [2],effect on cell morphology [3],"cell number, Stage 1 ([4]; 5 μM)","cell number, Stage 2 ([4]; 5 μM)","cell number, Stage 1 ([4]; 20 μM)","cell number, Stage 2 ([4]; 20 μM)",oral uterotrophic activity relative to estradiol [5]
"COc1cc2c(cc1O)CC[C@@H]1[C@@H]2CC[C@]2(C)[C@@H](O)CC[C@@H]12 [2-MeOE2, 2-methoxyoestradiol]",57%,83%,≥ 1 μm,60%,No toxic side effects were detected,–,–,–,–,–,–
"CC12CCC3c4ccc(OS(N)(=O)=O)cc4CCC3C1CCC2=O (stereo not drawn) [EMATE, oestrone-3-O-sulphamate]",–,–,–,–,–,did not affect cell morphology,EMATE 5 μM = 139% control,EMATE 5 μM = 98% control,EMATE 20 μM = 119% control,EMATE 20 μM = 103% control,100 times
C[C@]12CC[C@@H]3c4ccc(O)cc4CC[C@H]3[C@@H]1CCC2=O [Oestrone],–,–,–,–,–,did not affect cell morphology,–,–,–,–,–
